The text below walks through data of patent US20250136617A1 (The Regents of the University of Colorado, A Body Corporate, priority 2022, published 2025).

Entries after “also recorded” stand apart in the source; their conditions may differ. Where two headings read alike, the source gives them in different places.

The target in experiment [1] is T1, CXCR4 (Homo sapiens, UniProt P61073). In words: cAMP signaling assay, oxazole scaffold (forskolin-induced adenylate cyclase, CHO-K1 CXCR4 cells). Type of experiment: cell-based. Also noted: host or cells: CHO-K1. As for the experimental part: The CXCR4 receptor is a G-protein coupled receptor (GPCR) coupled to the Gi class, whose primary role is inhibition of adenylate cyclase. The ability of UCUF-728 to induce Gi-mediated cAMP-inhibitory cellular response was tested.
T1 sequence (P61073 whole entry): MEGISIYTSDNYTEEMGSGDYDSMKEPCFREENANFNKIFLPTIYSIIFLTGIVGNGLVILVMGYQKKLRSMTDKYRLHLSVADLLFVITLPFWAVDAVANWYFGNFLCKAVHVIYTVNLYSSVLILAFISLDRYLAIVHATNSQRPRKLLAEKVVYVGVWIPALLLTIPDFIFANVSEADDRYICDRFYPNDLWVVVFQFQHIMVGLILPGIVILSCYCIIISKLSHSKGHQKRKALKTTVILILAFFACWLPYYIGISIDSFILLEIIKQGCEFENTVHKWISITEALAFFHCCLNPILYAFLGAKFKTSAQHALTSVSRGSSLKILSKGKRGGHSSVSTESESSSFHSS
Forskolin at final concentration of […] was added to all wells using the TECAN dispenser. […] PathHunter CHO-K1 CXCR4 cells (DiscoverX, Fremont, CA) were added to compounds at 3,000 cells/well, centrifuged at 1000 rpm for 30 sec and incubated for 30 min at room temperature. DMSO (Sigma Aldrich, St. Louis, MO) was normalization to 0.5%. 5 μL of 4× Eu-cAMP tracer working solution was added to all wells followed by addition of 5 μL of 4× Ulight-anti-cAMP working solution to all wells. Plates were centrifuged at 1000 rpm for 1 min and incubated for 1 hr at room temperature then read using CLARIOstar Plus (BMG LABTECH Inc., Cary, NC) Lance CAMP protocol.

In experiment [2] the test system is CEM-CCRF human lymphoblast cells. The experiment in a line: Transwell migration assay in CEM-CCRF lymphoblasts. Type of experiment: cell-based. A digest of the protocol:
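CEM-CCRF cells at 5.0×10^5 cells/mL in RPMI 1640, preincubated 1 h at 37 °C, 5% CO2, then allowed to migrate in a 96-well transwell system for 3 h at 37 °C. Migrated cells in the receiver tray quantified by ATPLite luminescence.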

The target in experiment [3] is T1, CXCR4. In words: Tag-Lite CXCR4 binding assay (displacement of fluorescent SDF-1α). As for the experimental part: Binding activity was measured using the Cisbio Tag-Lite Chemokine CXCR4 system (CisBio, Bedford, MA). […] Following three-hour incubation, HTRF measurements were taken using the BMG LABTECH CLARIOstar Plus (BMG LABTECH Inc., Cary, NC) with emission signals set to the Cisbio Tag-Lite Binding Assay supplier guidelines. HTRF ratio calculations completed according to supplier guidelines.

For experiment [4], the target named is T1, CXCR4. The experiment in a line: Adenylate cyclase (cAMP inhibition) assay, thiadiazine scaffold, CHO-CXCR4-cAMP cells. Also noted: host or cells: CHO-K1. Type of experiment: cell-based. The method, then: Tango™ CXCR4-bla U2OS Cells (Invitrogen; K1779) were used for (β-arrestin recruitment assays and maintained as a monolayer culture in McCoy's 5a (Corning; 10-050-CV) supplemented with 10% dialyzed Fetal Bovine Serum (Gibco; 26400-044), 0.1 mM MEM Non-essential amino acids solution, 25 mM HEPES solution (Corning; 25-060-CI), 1 mM Sodium Pyruvate (Gibco; 11360-070), 200 μg/mL Zeocin selection reagent (Gibco; R25001), 50 μg/mL Hygromycin B (Gibco, 10687010), and 100 μg/mL Geneticin (G418 Sulfate) (Gibco, 10131035). U2OS cells were subcultured twice weekly by 0.05% Trypsin-EDTA treatment (Corning; 25-051-CI) and passaged to continue exponential growth phase for cell signaling assays. All cell cultures were maintained in cell culture incubators at 37° C. with 5% CO2. CHO-K1 CXCR4 cells (DiscoverX, Fremont, CA, USA) were used for cAMP inhibition assays and maintained as a monolayer culture in DMEM/F12 (Corning; 10-091-CV) supplemented with 10% Fetal Bovine Serum (Corning; 35-011-CV) and 100IU penicillin, […] streptomycin sulfate (Corning; 30-002-CI) and […] G418 (Gibco; 101310350. Cells were subculture 2 times weekly by o.o5% Trypsin-EDTA treatment (Corning; 25-051-CI) and passaged to continue exponential growth phase for cell signaling assays. All cell cultures were maintained in cell culture incubators at 37° C. with 5% CO2.CEM-CCRF cells (ATCC CCL-119) were used in both the migration and calcium flux assays and were cultured in growth media consisting of RPMI 1640 (Corning; 10-040-CV) supplemented with 10% Fetal Bovine Serum (Corning; 35-011-CV), and 100 IU penicillin, […] streptomycin sulfate (Corning; 30-002-CI). […] Cells were harvested for use in migration and calcium flux assays at 2.0×10^6 cells/mL to 2.5×10^6 cells/mL and resuspended in assay media to desired density for respective experiments.
Compounds and DMSO normalization to 0.5% were dispensed using the TECAN D300e digital dispenser into the wells of a 384-well white wall clear-bottom assay plate (Griener 781983). […] This cell suspension was dispensed at 20 μL per well into the assay plate and allowed to incubate overnight for approximately 18 hrs with compounds in cell culture incubator at 37° C. with 5% CO2. Following incubation, DMEM/F12 media was gently removed, then the Lance Ultra cAMP Kit (Perkin Elmer; TRF0263) was performed according to the supplier guidelines. […] Time-resolved fluorescence was measured on the BMG LABTECH CLARIOstar Plus (BMG LABTECH Inc., Cary, NC) using the Lance Ultra cAMP kit guidelines for excitation and emission. […]

The target in experiment [5] is T1, CXCR4. The experiment in a line: β-arrestin recruitment, 384-well, Tango CXCR4-bla U2OS cells, normalized to SDF-1α. Type of experiment: cell-based. Further details: host or cells: U2OS. The following applies: normalized to SDF-1α; read-out: ß-arrestin recruitment EC50. The procedure, abridged: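 Tango CXCR4-bla U2OS cells plated in DMEM with 1% dialyzed FBS (FreeStyle 293 medium for thiadiazines), incubated overnight at 37 °C, then LiveBLAzer FRET B/G substrate added for 2 h in the dark. Fluorescence read; EC50 and Emax fitted with Hill slope 1.0, normalized to SDF-1α.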
(Recruitment of arrestin is a read-out of receptor activation apart from second messengers.)

With `c1cc(CN2CCCNCCNCCCNCC2)ccc1CN1CCCNCCNCCCNCC1` [AMD3100, reference compound], the “cAMP signaling / forskolin-induced adenylate cyclase” value in experiment [1] is on record as “dose-dependently blocked; also recorded: dose-dependent inhibition of 40 nM SDF-1α”. The results for the “migration activity (words)” value in experiment [2] and in experiment [2] (listed as AMD 3100) were “blocked; also recorded: completely blocks SDF-1α induced migration; also recorded: unable to inhibit UCUF-965-induced migration; also recorded: does not inhibit the migratory response of CEM-CCRF cells induced by UCUF-965” and “able to inhibit the migration response induced by SDF-1α”, respectively. For the same molecule, the IC50 in experiment [2] (Homo sapiens, read-out: logIC50, inhibition of migration (converted)) is 31.6 nM. For the same molecule, the “displacement of SDF-1α binding” value in experiment [3] was “dose-dependently displaced SDF-1α; also recorded: dose-dependently displaced SDF-1a saturation binding; also recorded: dose-dependently inhibited SDF-1α saturation binding”. Further, the “cAMP inhibition activity” value in experiment [4] is given as “reduces the activity of SDF-1α to inhibit cAMP”. For the same molecule, the Emax (as a rule, the maximal effect, on the per cent scale that the assay sets) in experiment [4] (read-out: SDF-1α Emax reduced to, in the presence of 1 μM AMD3100) is 40%.
Regarding `CCOc1ccccc1-c1nnc2n1N=C(c1ccc(N3CCCC3)cc1)CS2` [Entry 23], the results for the EC50 in experiment [5] and in experiment [4] (inhibition of forskolin-stimulated cAMP) were 20 nM and 50 nM, respectively.
On to `CCOc1ccccc1-c1nnc2n1N=C(c1ccc(N3CCCC3=O)cc1)CS2` [compound 63], for which the “migration activity (words)” value in experiment [2] is “partial agonist activity”. Further, the “cAMP inhibition activity” value in experiment [4] is recorded as “partial agonist activity”.
For SDF-1α, the “cAMP signaling / forskolin-induced adenylate cyclase” value in experiment [1] is “inhibited forskolin-induced adenylate cyclase”. Moreover, the IC50 in experiment [4] (CXCR4 overexpressing CHO cells, read-out: IC50, inhibition of forskolin-stimulated cAMP production) is 1.5 nM. Moreover, the “log IC50, inhibition of forskolin-stimulated cAMP production” value in experiment [4] (log value) is reported as −8.9±0.1 M.
